From PubChem BioAssay (NCI)
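Tested at 5 concentrations; 48 h exposure; 96-well plates; endpoints linearly interpolated, else capped at highest concentration. At the GI50, growth is halved. The concentration for full growth arrest is given as TGI.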

Assays:
Test in all cases: inhibition of tumour cell growth, NCI panel, 48 h
[1] = system: BT-549 breast
[2] = system: HCT-116 colon
[3] = system: TK-10 renal
[4] = system: OVCAR-3 ovarian
[5] = system: SF-539 CNS
[6] = system: SK-MEL-28 melanoma
[7] = system: SNB-19 CNS
[8] = system: UACC-257 melanoma
[9] = system: KM12 colon
[10] = system: A549 NSCLC

Compound	GI50 [1] [µM]	TGI [1] [µM]	GI50 [2] [µM]	TGI [2] [µM]	GI50 [3] [µM]	TGI [3] [µM]	GI50 [4] [µM]	TGI [4] [µM]	GI50 [5] [µM]	TGI [5] [µM]	GI50 [6] [µM]	TGI [6] [µM]	GI50 [7] [µM]	TGI [7] [µM]	GI50 [8] [µM]	TGI [8] [µM]	GI50 [9] [µM]	TGI [9] [µM]	GI50 [10] [µM]	TGI [10] [µM]
FC(F)(F)Oc1cccc(-c2cc(NCCCCCCNc3cc(-c4cccc(OC(F)(F)F)c4)nc4ccc(N5CCCC5)cc34)c3cc(N4CCCC4)ccc3n2)c1	1.78	3.72	2.21	5.54	1.78	3.37	1.83	3.24	1.85	3.33	1.83	3.3	1.55	2.98	1.89	3.88	1.74	3.27	2.05	4.49
CCN=c1sc2c(n1NC(=O)c1cc3ccc1CCc1ccc(cc1)CC3)C(=O)c1ccccc1C2=O	0.511	0.974	0.754	2.07	9.54	16.5	0.567	1.52	0.556	1.04	0.663	1.18	0.605	1.33	0.551	1.07	1.02	3.83	0.738	1.71
O=C1C=C[C@H](O)[C@@]2(CO)O[C@@H]12	12.4	25.5	1.79	3.33	16.1	29.8	3.31	10.7	11.6	25.6	12.8	25.7	18.9	48.9	9.25	23.6	12.1	24.5	23.7	> 60.1
Cn1nccc1Nc1nccc(-c2ccn([C@H](CO)c3ccc(Cl)c(F)c3)c(=O)c2)n1	19.7	61	2.79	21.1	24	> 100	37.5	> 100	2.24	6.91	0.104	> 100	27.6	> 100	0.158	> 100	18.8	> 100	36	> 100
CN(C)CCCC1(c2ccc(F)cc2)OCc2cc(-c3cccc4[nH]ccc34)ccc21 (stereo not given)	1.87	3.54	1.37	2.82	1.7	3.2	1.79	3.35	1.67	3.12	1.83	3.27	1.74	3.26	1.7	3.18	1.74	3.27	1.6	3.07
COCC([C@@H](O)C(O)C(=O)NCC[C@@H](C)c1nc(/C=C/CC2OC3(C[C@H](O)C2C)OC(C(C[C@H](O)C(C)[C@H](O)C(C)/C=C(C)/C(C)=C/C=C/C(C)=C/C#N)OC)[C@@H](OP(=O)(O)O)C3(C)C)co1)N(C)C (stereo not given in full)	–	0.000312	–	0.000315	–	0.00024	–	0.000326	–	0.00034	–	0.000323	–	0.000343	–	0.00232	–	0.000331	–	0.00147
CCn1cc(C(=O)O)c(=O)c2cc(F)c(N3CCN(S(=O)(=O)c4cccc5ccccc45)CC3)cc21	3.69	> 100	3.88	> 100	7.6	> 100	3.69	15.6	2.43	8.53	6.09	> 100	3.47	> 100	2.72	7.72	2.96	9.2	2.87	> 100
CCN1C(=S)N(CC)C2C1NC(=S)N2/N=C/C=C/c1ccccc1OC (stereo not given)	0.899	8.56	0.326	> 36.3	7.69	98.9	0.174	0.64	0.194	0.541	1.11	> 100	0.48	> 100	21.8	> 100	0.27	15.8	0.503	> 100
CCN(CC)CCCNc1ccc(C)c2sc3ccccc3c(=O)c12	1.83	11.1	0.407	1.59	1.37	2.76	3.42	16.2	1.3	2.81	0.201	0.435	1.03	2.71	0.23	0.54	1.11	2.74	0.554	1.99
COc1cc2c(N3CCN(C(=O)Nc4ccc(OC(C)C)cc4)CC3)ncnc2cc1OCCCN1CCCCC1	13.4	29.3	14	57.3	38.9	> 100	22.2	> 59	6.43	22.3	15.1	30.9	22.2	> 100	10.3	23.6	3.22	29.8	17.1	> 93.7
c1ccc(-c2[nH]ncc2-c2ccnc(-c3ccc(OCCn4ccnc4)cc3)c2)nc1	22.5	> 25	> 25	> 25	> 25	> 25	22.4	> 25	> 25	> 25	> 25	> 25	> 25	> 25	> 25	> 25	13.7	> 25	> 25	> 25
Cc1ccc(O)cc1Nc1ccnc2ccc(S(C)(=O)=O)cc12	5.06	17.8	3.53	> 25	0.484	2.23	4.82	> 22.8	1.08	7.62	1.98	> 25	7.66	> 25	0.957	> 25	> 25	> 25	2.76	> 25
